Common to all, as to format: cell-based
In assay [1] the test system is U251 central nervous system cancer cells. Nature of the assay: antitumor activity, sulforhodamine B cell growth assay, U251. To be noted: Homo sapiens, U-251; U251 central nervous system cancer cells; read-out: antitumor activity GI50 value: 50% growth inhibitory concentration. The procedure, abridged:
(§1)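 Read-out is sulforhodamine B absorbance (525 nm) after a 48 h compound treatment of adherent cells grown in RPMI 1640 with 5% fetal bovine serum. Percent growth at each concentration was plotted against log concentration to derive GI50, TGI and LC50.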

In assay [2] the test system is MKN-A gastric cancer cells. In words: antitumor activity, sulforhodamine B cell growth assay, MKN-A. To be noted: MKN-A gastric cancer cells; read-out: antitumor activity GI50 value: 50% growth inhibitory concentration. The procedure, abridged:
as §1

In assay [3] the test system is NCI-H460 lung cancer cells. Nature of the assay: antitumor activity, sulforhodamine B cell growth assay, NCI-H460. The note with it: Homo sapiens, NCI-H460; NCl--H460 lung cancer cells; read-out: antitumor activity GI50 value: 50% growth inhibitory concentration. The method in brief:
as §1

Assay [4] has as its system SNB-75 central nervous system cancer cells. In words: antitumor activity, sulforhodamine B cell growth assay, SNB-75. To be noted: Homo sapiens; SNB-75 central nervous system cancer cells; read-out: antitumor activity GI50 value: 50% growth inhibitory concentration. The procedure, abridged: as §1
Assay [5] deals with A549 lung cancer cells. Nature of the assay: antitumor activity, sulforhodamine B cell growth assay, A549. To be noted: Homo sapiens; A549 lung cancer cells; read-out: antitumor activity GI50 value: 50% growth inhibitory concentration. The procedure, abridged:
as §1

The subject of assay [6] is DU-145 prostate cancer cells. In words: antitumor activity, sulforhodamine B cell growth assay, DU-145. The note with it: Homo sapiens; DU-145 prostate cancer cells; read-out: antitumor activity GI50 value: 50% growth inhibitory concentration. The method in brief: as §1
Assay [7] has as its system various cancer cell lines. In words: Verification of antitumor activity, whole panel of cancer cell lines. The note with it: in words, compared with Cyanosafracin B. On the procedure: The THIQ compound containing a macrocyclic structure of the present invention was administered to various cancer cell lines, and the antitumor activity (Go value) was observed. Specifically, verification was performed according to the literature (Yamori, T.; Matsunaga, A.; Sato, S.; Yamazaki, K.; Komi, A.; Ishizu, K. et al. Cancer Res. 1999, 59, 4042) by the following procedure.
Cells were plated at an appropriate density in a 96-well plate in RPMI 1640 together with 5% fetal bovine serum, and adhered overnight. The cells were exposed to a drug for 48 hours. Then, according to the sulforhodamine B assay described by Skehan et al (Skehan P., Storeng R., Scudiero D., Monks A., McMahon J., Vistica D., Warren J. T., Bokesch H., Kenney S., Boyd M. R. J Natl. Cancer Inst, 1990, 82, 1107-1112), the cell growth rate was measured. The absorbance of the control well (C) and the test well (T) was measured at 525 nm. In addition, the time at which the drug was added was set as time 0, and the absorbance for the test well (T0) was measured. Using these measured values, the cell growth inhibitory effect (% growth=PG) was calculated by the following formula at each concentration of the drug.
(T<T0): PG=100×[(T−T0)/T]
The PG values determined above for each cell line were plotted against the concentration (logarithm) on a semi-logarithmic graph, and summarized for each visceral cancer. Concentrations at which the dose-response curve of each cell line crossed the horizontal line of PG=50%, 0%, or −50% were calculated. These concentrations were defined as Log GI50, Log TGI, and Log LC50. Actually, using two data points of the drug concentration before and after crossing each horizontal line, the drug concentration (logarithmic value) at the intersection of the straight line connecting the two points and the horizontal line for each PG was calculated.

Assay [8] deals with NCI-H226 lung cancer cells. Nature of the assay: antitumor activity, sulforhodamine B cell growth assay, NCI-H226. The note with it: Homo sapiens, NCI-H226; NCl-H226 lung cancer cells; read-out: antitumor activity GI50 value: 50% growth inhibitory concentration. The procedure, abridged: as §1
Assay [9] concerns ACHN kidney cancer cells. Nature of the assay: antitumor activity, sulforhodamine B cell growth assay, ACHN. To be noted: Homo sapiens; ACHN kidney cancer cells; read-out: antitumor activity GI50 value: 50% growth inhibitory concentration. The procedure, abridged:
as §1

Assay [10] has as its system DMS273 lung cancer cells. Nature of the assay: antitumor activity, sulforhodamine B cell growth assay, DMS273. The note with it: Homo sapiens, DMS-273; DMS273 lung cancer cells; read-out: antitumor activity GI50 value: 50% growth inhibitory concentration. The procedure, abridged:
as §1

The subject of assay [11] is OVCAR-3 cancer cells. Nature of the assay: antitumor activity, sulforhodamine B cell growth assay, OVCAR-3. The note with it: Homo sapiens; OVCAR-3 cervical cancer cells; read-out: antitumor activity GI50 value: 50% growth inhibitory concentration. The method in brief: as §1
Assay [12] has as its system St-4 gastric cancer cells. In words: antitumor activity, sulforhodamine B cell growth assay, St-4. The note with it: SI-4 gastric cancer cells; read-out: antitumor activity GI50 value: 50% growth inhibitory concentration. The procedure, abridged:
as §1

Assay [13] concerns HCT-15 colorectal cancer cells. In words: antitumor activity, sulforhodamine B cell growth assay, HCT-15. The note with it: Homo sapiens; HCT-15 colorectal cancer cells; read-out: antitumor activity GI50 value: 50% growth inhibitory concentration. The method in brief:
as §1

Assay [14] concerns OVCAR-8 cancer cells. Nature of the assay: antitumor activity, sulforhodamine B cell growth assay, OVCAR-8. The note with it: Homo sapiens; OVCAR-8 cervical cancer cells; read-out: antitumor activity GI50 value: 50% growth inhibitory concentration. The procedure, abridged: as §1
The test system of assay [15] is SF-539 central nervous system cancer cells. Nature of the assay: antitumor activity, sulforhodamine B cell growth assay, SF-539. To be noted: Homo sapiens; SF-539 central nervous system cancer cells; read-out: antitumor activity GI50 value: 50% growth inhibitory concentration. The procedure, abridged:
as §1

Assay [16] concerns HCC2998 colorectal cancer cells. In words: antitumor activity, sulforhodamine B cell growth assay, HCC2998. The note with it: Homo sapiens, HCC 2998; HCC2998 colorectal cancer cells; read-out: antitumor activity GI50 value: 50% growth inhibitory concentration. The method in brief:
as §1

Assay [17] has as its system MCF-7 breast cancer cells. Nature of the assay: antitumor activity, sulforhodamine B cell growth assay, MCF-7. To be noted: Homo sapiens, MCF7; MCF-7 breast cancer cells; read-out: antitumor activity GI50 value: 50% growth inhibitory concentration. The procedure, abridged:
as §1

The subject of assay [18] is HBC-5 breast cancer cells. In words: antitumor activity, sulforhodamine B cell growth assay, HBC-5. To be noted: HBC5; HBC-5 breast cancer cells; read-out: antitumor activity GI50 value: 50% growth inhibitory concentration. The method in brief: as §1
The test system of assay [19] is SK-OV-3 cancer cells. Nature of the assay: antitumor activity, sulforhodamine B cell growth assay, SK-OV-3. To be noted: Homo sapiens; SK-OV-3 cervical cancer cells; read-out: antitumor activity GI50 value: 50% growth inhibitory concentration. The procedure, abridged:
as §1

The subject of assay [20] is BSY-1 breast cancer cells. In words: antitumor activity, sulforhodamine B cell growth assay, BSY-1. To be noted: BSY-1 breast cancer cells; read-out: antitumor activity GI50 value: 50% growth inhibitory concentration. The procedure, abridged: as §1
In assay [21] the test system is MKN-B gastric cancer cells. In words: antitumor activity, sulforhodamine B cell growth assay, MKN-B. To be noted: MKN-B gastric cancer cells; read-out: antitumor activity GI50 value: 50% growth inhibitory concentration. The method in brief:
as §1

In assay [22] the test system is KM-12 colorectal cancer cells. In words: antitumor activity, sulforhodamine B cell growth assay, KM-12. The note with it: Homo sapiens, KM12; KM-12 colorectal cancer cells; read-out: antitumor activity GI50 value: 50% growth inhibitory concentration. The procedure, abridged:
as §1

Take `C#CCN1C/C=C/COc2c(C)c3c(c4c2C[C@H]2[C@H]5c6c(cc(C)c(OC)c6O)C[C@@H]([C@H](C#N)N2C4CNC(=O)[C@@H]1C)N5C)OCO3` [Compound 44]: the GI50 in assay [1] is below 10 nM; in assay [2], below 10 nM; in assay [3] it was below 10 nM; in assay [4] it was below 10 nM; in assay [5], below 0.01 µM; in assay [6], below 0.01 µM. For the same molecule, the GI50 in assay [8], in [9], in assay [10], in [11], in [12] and in [13] was below 10 nM each time. Further, the GI50 in assay [14] is below 10 nM; in assay [15], below 10 nM; in assay [16], below 10 nM; in [17], below 10 nM; in assay [18], below 10 nM; in [19] it was below 0.01 µM. The GI50 in [20], in assay [21] and in assay [22] was below 10 nM in each case. Also, the antitumor activity result in [7] is “better antitumor activity than Cyanosafracin B”.

Regarding `C#CCN1C(=O)[C@H]2[C@@H]3C=C(COc4c(C)c5c(c6c4C[C@H]4[C@H]7c8c(cc(C)c(OC)c8O)C[C@@H]([C@H](C#N)N4C6CNC(=O)[C@H](C)NC(=O)OC3)N7C)OCO5)C[C@H]2C1=O` [Compound 47], the GI50 amounted to 350 nM in assay [1]; 1400 nM in assay [2]; 630 nM in assay [3]; 330 nM in assay [4]; 3.9 µM in assay [5]; 3.9 µM in assay [6]. Moreover, the GI50 in assay [8] came to 2300 nM; in assay [9], 2600 nM; in assay [10], 450 nM; in assay [11], 330 nM; in assay [12], 2200 nM; in [13], 2200 nM. The GI50 turned out to be 1100 nM in assay [14]; 290 nM in assay [15]; 410 nM in assay [16]; 63 nM in [17]; 300 nM in [18]; 3.9 µM in [19]. Further, the results for the GI50 in assay [20], in [21] and in [22] were 150 nM, 730 nM and 450 nM, respectively. Further, the antitumor activity result in assay [7] was “better antitumor activity than Cyanosafracin B”.

The record behind these values is patent US20240197726A1, “NOVEL TETRAHYDROISOQUINOLINE ALKALOID COMPOUND CONTAINING MACROCYCLE” (THE UNIVERSITY OF TOKYO, priority 2021, published 2024).
